Data on twelve compounds can be found in patent publication US4001323A, “Water-soluble, non-ionizing hydroxy-containing amide derivatives of 2,4,6-triiodo-isophthalic acid” (Savac AG, priority 1974, dated 1977).

Data set [1] is described as follows: Solubility in water (Table I). Type of data set: physicochemical. To be noted: for solubility: water. The protocol:
The following Examples are further illustrative of this invention. All solubility values are in grams per 100 ml unless stated otherwise.

For data set [2], the system named is mice. Description: Acute toxicity LD50 in mice (i.v., i.p., i.ce.). The class given is in vivo. Particulars: for Toxicity, LD50, i.ce.: intracerebral, 5 ml/kg, concentration varied, evaluated after 48 hours; for Toxicity, LD50, i.v.: intravenous, 20 mg I per kg and minute; for Toxicity, LD50, i.v. / Toxicity, LD50, i.p.: 400 mg I per ml, evaluated after 12 days; for Toxicity, LD50, i.p.: intraperitoneal. Here is the method:
(§1) The solutions injected for i.v., i.p., i.ci., and i.ca. toxicity tests contained 400 mg I per ml. The rate of injection was 20 mg I per kg and minute for i.v. and i.ca. toxicity. In the tests for i.ce. toxicity, the injected volume was 5ml/kg, and the concentration was varied. Results of i.v. and i.p. toxicity tests were evaluated after 12 days, results of i.ce. and i.ca. toxicity tests after 48 hours.

For data set [3], the system named is rabbits. Description: Acute intracisternal toxicity LD50 in rabbits. Type of data set: in vivo. To be noted: 400 mg I per ml. Here is the method: as §1
Data set [4] in a line: Storage / supersaturation stability of aqueous solutions. Type of data set: physicochemical. Here is the method:
(§2) 10 Ml of a solution containing 10 g Compound A was stored several days at 4° C, whereby only 2.3 g of the compound was precipitated.
The residue was recrystallized from aqueous methanol and consisted of 11.6 g DL-5-α,β-dihydroxypropionylamino-2,4,6-triiodo-isophtalic acid di-(1,3-dihydroxyisopropylamide) (62.5% yield). It sintered and melted at 210° - 230° C and decomposed at 260° C. It gave an Rf value of 0.15 by thin layer chromatography on silica gel with chloroform/methanol/aqueous 25% ammonia 6:3:1. It was identified by elementary analysis for carbon and iodine which yielded values of 25.70% C and 48.29% I against 25.74% and 48.00% respectively calculated for C17 H22 I3 N3 O9.

A short description of data set [5]: Thermal stability of aqueous solutions. Type of data set: physicochemical. On the set-up: key to Appearance, initial / Appearance, 30 min. / Appearance, 15 hrs.: (1): Clear solution; (2): Colorless; (3): Slightly colored; (4): Brown suspension, black sediment. Particulars: 400 mg I per ml, under nitrogen, 120° C. Here is the method:
For a comparison of thermal stability, aqueous solutions of Compounds A and H containing 400 mg I per ml where heated under nitrogen at 120° C. pH, iodide ion concentration and appearance were determined initially, after 30 minutes and after 15 hours.

The conditions of data set [6]: cited from earlier work.
Data set [7] deals with mice. To be noted: intravenous, literature; cited from earlier work.
For data set [8] the following is noted: in vivo; cited from earlier work.
For data set [9], the system named is rats. Description: Acute intracarotideal toxicity LD50 in rats. Type of data set: in vivo. Particulars: 400 mg I per ml, 20 mg I per kg and minute, evaluated after 48 hours. Here is the method: as §1
A short description of data set [10]: Viscosity of aqueous solutions. Type of data set: physicochemical. Here is the method: Aqueous solutions of Compound A containing 300 and 400 mg iodine respectively had viscosities of 8.95 and 40.6 c.p. at 20°, 4.70 and 16.1 c.p. at 37° C. A low viscosity facilitates injection.
Data set [11] is described as follows: Solubility in organic solvents. The class given is physicochemical. Here is the method: as §2
Where [12] appears, read: 20° C, read-out: Solubility in water at 20° C.
Setting [13] is: 60° C, read-out: Solubility in water at 60° C.
Setting [14] is: 40° C, read-out: Solubility in water at 40° C.

Values after ≈ are worked out from the molar mass of the structure shown.

On to `CC(=O)Nc1c(I)c(C(=O)NC(CO)CO)c(I)c(C(=O)NC(CO)CO)c1I` [E, 5-acetylamino-2,4,6-triiodo-isophthalic acid di-(1,3-dihydroxisopropylamide), reference compound], for which the “Solubility in water (in words)” value in data set [1] is listed as “poor solubility”. Moreover, the solubility in data set [1] (setting [12]) amounted to 2 mg/mL (≈ 2.68 mM); in [1] (setting [13]), 5 mg/mL (≈ 6.69 mM).

Consider “5-α-acetoxypropionylamino-2,4,6-triiodo-isophthalic acid di-(2,2-dimethyl-1,3-dioxolan-4-yl-methylamide)”, for which the “Solubility in water (in words)” value in data set [1] is “practically insoluble in water”.

For the compound `CC(=O)Nc1c(I)c(C(=O)N(C)CC(O)CO)c(I)c(C(=O)N(C)CC(O)CO)c1I` (stereo not shown) [G, 5-acetylamino-2,4,6-triiodo-isophthalic acid di-(N-methyl-2,3-dihydroxypropylamide)], the solubility in data set [1] (setting [12]) came to 550 mg/mL (≈ 710 mM). In addition, in data set [2], the “Toxicity, LD50, i.ce.” value is 820 mg I/kg and the “Toxicity, LD50, i.v.” value is listed as 15700 mg I/kg. Also, the “Toxicity, LD50, i.ci.” value in [3] amounted to 81 mg I/kg.

For the compound `O=C(NC(CO)CO)c1c(I)c(NC(=O)C(O)CO)c(I)c(C(=O)NC(CO)CO)c1I` (racemic) [DL-5-α,β-dihydroxypropionylamino-2,4,6-triiodo-isophtalic acid di-(1,3-dihydroxyisopropylamide)], the “Solubility in water (in words)” value in data set [1] was “good solubility in warm water”. Also, the “Stability of supersaturated solutions” value in data set [4] (37° C, water) is “stable for several hours at 37 °C”.

For `CC(O)C(=O)Nc1c(I)c(C(=O)NCC(O)CO)c(I)c(C(=O)NCC(O)CO)c1I` (mixture of isomers) [Compound D, 5-DL-α-Hydroxypropionylamino-2,4,6-triiodo-isophthalic acid di-(DL-2,3-dihydroxypropylamide)], the “Solubility in water (in words)” value in data set [1] is “somewhat less soluble than Compound C”. Further, the “Solubility in water at 20° C” value in data set [1] (20° C) came out at 14 g/100 ml. Besides, the “Solubility in water at 40° C” value in data set [1] (40° C) was found to be 20 g/100 ml. Besides, the “Solubility in water at 60° C” value in data set [1] (60° C) is given as 34 g/100 ml. In addition, the solubility in data set [1] (setting [12]) turned out to be 140 mg/mL; in data set [1] (setting [14]), 200 mg/mL; in data set [1] (setting [13]) it was 340 mg/mL.

For the compound `CC(=O)Nc1c(I)c(C(=O)N[C@H]2C(O)O[C@H](CO)[C@@H](O)[C@@H]2O)c(I)c(N(C)C(C)=O)c1I` (stereo partly shown) [Compound H, 3-acetylamino-5-N-methyl-acetylamino-2,4,6-triiodobenzoyl-glucosamine, reference compound], the solubility in data set [1] (setting [12]) is around 800 mg/mL (≈ 1010 mM). Besides, in [2], the “Toxicity, LD50, i.ce.” value turned out to be 1400 mg I/kg; the “Toxicity, LD50, i.p.” value was 4800 mg I/kg; the “Toxicity, LD50, i.v.” value is listed as 10200 mg I/kg. The “Toxicity, LD50, i.ci.” value in data set [3] was 100 mg I/kg. Moreover, in data set [5], the “Appearance, 30 min.” value was “(3)”; the “iodide ion concentration, 30 min.” value came to 1.71 mg I' per ml; the “pH, 30 min.” value amounted to 6.45; the “Appearance, 15 hrs.” value was “(4)”. In [5], the “iodide ion concentration, 15 hrs.” value came to 40.60 mg I' per ml; the “pH, 15 hrs.” value was determined as 2.65; the “Appearance, initial” value is reported as “(1)”; the “iodide ion concentration, initial” value is given as 0.66 mg I' per ml. The “pH, initial” value in data set [5] stood at 6.54. In addition, the “Solubility in water (in words, known compounds)” value in data set [6] was “very soluble in water”. Also, in data set [7], the “i.v. LD50 in mice (F.L. Weitl, 170th Am. Chem. Soc. meeting)” value was 23800 mg/kg and the “i.v. LD50 in mice (F.L. Weitl, 170th Am. Chem. Soc. meeting), as iodine” value was 11400 mg I per kg. Also, the “Toxicity (in words, known compound)” value in data set [8] is reported as “relatively non-toxic”.

As to `CC(=O)Nc1c(I)c(C(=O)NCC(O)CO)c(I)c(C(=O)NCC(O)CO)c1I` (stereo not shown) [Compound F, 5-acetylamino:2,4,6-triiodo-isophthalic acid di-(2,3-dihydroxypropylamide), reference compound], the “Solubility in water (in words)” value in data set [1] is “poor solubility”. Moreover, the solubility in [1] (setting [12]) amounted to 5 mg/mL (≈ 6.69 mM); in data set [1] (setting [14]), 8 mg/mL (≈ 10.7 mM); in [1] (setting [13]), 15 mg/mL (≈ 20.1 mM).

Turning to `C[C@H](O)C(=O)Nc1c(I)c(C(=O)NC(CO)CO)c(I)c(C(=O)NC(CO)CO)c1I` [Compound A, L-5-α-Hydroxypropionylamino-2,4,6-triiodo-isophthalic acid di-(1,3-dihydroxyisopropylamide)], in data set [1], the “Solubility in water (in words)” value is listed as “very readily soluble in water”. Besides, the solubility in data set [1] (setting [12]) was determined as 890 mg/mL (≈ 1150 mM). For the same compound, the solubility in data set [1] (setting [14]) was 1040 mg/mL (≈ 1340 mM). Also, in data set [1] (setting [13]), the solubility came out at 1150 mg/mL (≈ 1480 mM). Moreover, in data set [2], the “Toxicity, LD50, i.ce.” value stood at 1500 mg I/kg; the “Toxicity, LD50, i.p.” value is 20000 mg I/kg; the “Toxicity, LD50, i.v.” value is recorded as 21800 mg I/kg. Further, the “Toxicity, LD50, i.ci.” value in data set [3] came out at 250 mg I/kg. Moreover, the “Toxicity, LD50, i.ca.” value in data set [9] worked out at 6500 mg I/kg. For the same compound, in data set [10] (300 mg iodine, 20° C), the “Viscosity of aqueous solution, 300 mg iodine, 20° C” value is 8.95 c.p. Besides, the “Viscosity of aqueous solution, 300 mg iodine, 37° C” value in [10] (300 mg iodine, 37° C) worked out at 4.70 c.p. Besides, in data set [10] (400 mg iodine, 20° C), the “Viscosity of aqueous solution, 400 mg iodine, 20° C” value is on record as 40.6 c.p. For the same compound, in data set [10] (400 mg iodine, 37° C), the “Viscosity of aqueous solution, 400 mg iodine, 37° C” value turned out to be 16.1 c.p. Besides, in data set [5], the “Appearance, 30 min.” value was “(1) (2)”; the “iodide ion concentration, 30 min.” value was 0.3 mg I' per ml; the “pH, 30 min.” value came out at 7.29; the “Appearance, 15 hrs.” value is given as “(1) (3)”. For the same compound, in data set [5], the “iodide ion concentration, 15 hrs.” value came to 1.8 mg I' per ml; the “pH, 15 hrs.” value was found to be 5.15; the “Appearance, initial” value was “(1) (2)”; the “iodide ion concentration, initial” value stood at 0.15 mg I' per ml. Further, the “pH, initial” value in data set [5] was 7.43. The “Solubility in ethanol (in words)” value in [11] (ethanol) is listed as “miscible with boiling ethanol”. Besides, in [11] (methanol), the Solubility in methanol entry was “practically unlimited”. Moreover, the solubility in data set [11] (organic solvent or mixture, ethanol, room temperature) was around 100 mg/mL (≈ 129 mM). The “Amount precipitated from aqueous solution on storage” value in data set [4] (10 ml of solution containing 10 g, several days at 4° C) amounted to 2.3 g.

In the case of `O=S(=O)(CI)NC(CO)CO` [Compound I, iodomethanesulfonic acid αγ-dihydroxyisopropylamide], in data set [2], the “Toxicity, LD50, i.ce.” value amounted to 385 mg I/kg and the “Toxicity, LD50, i.v.” value is listed as 4700 mg I/kg. For the same compound, in [3], the “Toxicity, LD50, i.ci.” value is 89 mg I/kg.

Take `C[C@H](O)C(=O)Nc1c(I)c(C(=O)NCC(O)CO)c(I)c(C(=O)NCC(O)CO)c1I` (mixture of isomers) [Compound C, L-5-α-hydroxypropionylamino-2,4,6-triiodo-isophthalic acid di-(DL-2,3-dihydroxypropyl-amide)]: in data set [1], the “Solubility in water (in words)” value is “very easily soluble in water”. In addition, the solubility in [1] (setting [12]) was found to be 157 mg/mL; in data set [1] (setting [14]) it was 210 mg/mL; in data set [1] (setting [13]), 400 mg/mL. For the same compound, the “Solubility in ethanol (in words)” value in data set [11] (ethanol) is “somewhat less soluble in ethanol”.

`CNC(=O)c1c(I)c(NC(=O)CCCCC(=O)Nc2c(I)c(C(=O)O)c(I)c(C(=O)NC)c2I)c(I)c(C(=O)O)c1I` [Compound K, 5,5'-adipoyldiimino-bis-(2,4,6-triiodo-N-methyl-isophthalamic acid)]: in data set [2], the “Toxicity, LD50, i.ce.” value is recorded as 280 mg I/kg and the “Toxicity, LD50, i.v.” value was determined as 5500 mg I/kg. The “Toxicity, LD50, i.ci.” value in data set [3] worked out at 37 mg I/kg.

As for `CC(O)C(=O)Nc1c(I)c(C(=O)NC(CO)CO)c(I)c(C(=O)NC(CO)CO)c1I` (racemic) [Compound B, dl-5-α-hydroxypropionylamino-2,4,6triiodo-isophthalic acid di-(1,3-dihydroxyisopropylamide)], the solubility is 300 mg/mL (≈ 386 mM) in [1] (setting [12]), 300 mg/mL (≈ 386 mM) in [1] (setting [14]) and 320 mg/mL (≈ 412 mM) in [1] (setting [13]).

What is called solubility is the dissolved amount per volume that the medium holds.
